# Read-outs that look alike come from different tables or passages of the source.
# What was measured:
# [1] = tested on: HDAC; details: literature statements; cited from earlier work
# [2] = target: T1, sirtuin protein (Homo sapiens, UniProt Q96EB6); experiment: MS assay (IC50 MS ASSAY / ED50 MS / FOLD ACTIVATION MS); assay type: biochemical; set-up: scale not given here
# T1 sequence (Q96EB6 2-747 limits assumed): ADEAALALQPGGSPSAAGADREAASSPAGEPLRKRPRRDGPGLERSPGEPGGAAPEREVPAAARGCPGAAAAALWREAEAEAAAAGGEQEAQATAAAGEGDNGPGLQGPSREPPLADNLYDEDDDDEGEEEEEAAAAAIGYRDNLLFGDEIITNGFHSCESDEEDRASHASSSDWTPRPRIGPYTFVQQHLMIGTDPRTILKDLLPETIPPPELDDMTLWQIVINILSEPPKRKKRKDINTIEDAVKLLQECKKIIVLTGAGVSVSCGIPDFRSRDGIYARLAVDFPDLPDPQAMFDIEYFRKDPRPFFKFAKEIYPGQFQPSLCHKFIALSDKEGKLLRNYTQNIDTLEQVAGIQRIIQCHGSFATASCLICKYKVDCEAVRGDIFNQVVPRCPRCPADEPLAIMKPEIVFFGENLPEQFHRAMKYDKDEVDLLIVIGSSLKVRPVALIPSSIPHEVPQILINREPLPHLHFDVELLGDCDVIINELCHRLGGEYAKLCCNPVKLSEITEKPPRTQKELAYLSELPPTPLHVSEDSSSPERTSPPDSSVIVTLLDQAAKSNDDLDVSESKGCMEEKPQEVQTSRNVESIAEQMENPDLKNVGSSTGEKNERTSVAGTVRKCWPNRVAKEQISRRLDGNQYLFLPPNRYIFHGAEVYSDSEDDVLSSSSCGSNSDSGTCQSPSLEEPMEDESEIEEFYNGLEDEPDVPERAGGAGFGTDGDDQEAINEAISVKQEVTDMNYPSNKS
# [3] = Table 4, class symbols A′, A, B, D, NA, legend not given
# [4] = class symbols (A′, A, B, D, NA), no legend given
# [5] = MS assay, class symbols, key not given
# [6] = Table 4, class symbols A′, A, B, C, NA, legend not given
# [7] = Table 4, class symbols, legend not given
# [8] = MS assay, class symbols A′, A, B, D, NA, legend not given
Compound,ED50 MS ASSAY [2],ED50 MS ASSAY ([2]; Table 4),"ED50 MS ASSAY ([2]; Table 4, class symbols)","ED50 MS ASSAY [2, 3]","ED50 MS ASSAY [2, 4]",further results
"C/C=C1\NC(=O)[C@H]2CSSCC/C=C/[C@H](CC(=O)N[C@H](C(C)C)C(=O)N2)OC(=O)[C@H](C(C)C)NC1=O [Depsipeptide, depsipeptide]",,,,,,inhibition of HDAC [1]: inhibit HDAC activity at micromolar concentrations
depudecin,,,,,,inhibition of HDAC [1]: inhibit HDAC at micromolar concentrations
trichostatin A [TSA],,,,,,inhibition of HDAC [1]: potent inhibitor of mammalian HDAC
O=C(Nc1ccccc1-c1nc2cccnc2[nH]1)c1ccccc1 [Compound 533],A′,A′,A′,A′,A′,
COc1cc(C(=O)Nc2ccccc2-c2cn3c(CN4CCCC4)csc3n2)cc(OC)c1OC [Compound 620],A′,A′,A′,A′,A′,
O=C(Nc1ccccc1-c1cn2cc(CN3CCNCC3)sc2n1)c1cnc2ccccc2n1 [Compound 513],A′,A′,A′,A′,A′,
O=C(Nc1ccccc1-c1cn2c(CN3CCCCC3)csc2n1)c1cnc2ccccc2n1 [Compound 618],A′,A′,A′,A′,A′,
O=C(Nc1ccccc1-c1cn2c(CN3CCNCC3)csc2n1)c1c[nH]nc1-c1ccccc1 [Compound 512],A′,A′,A′,A′,A′,
O=C(Nc1ccccc1-c1cn2c(CN3CCNCC3)csc2n1)c1cc2ccccc2o1 [Compound 624],A′,A′,A′,A′,A′,
O=C(Nc1ccccc1-c1cn2c(CN3CCSCC3)csc2n1)c1cnc2ccccc2n1 [Compound 742],A′,A′,,,,"ED50 MS ASSAY [2, 5]: A′; ED50 MS ASSAY ([2]; TABLE 4): A′; ED50 MS ASSAY [2, 6]: A′"
O=C(Nc1ccccc1-c1cn2c(CN3CCN(Cc4ccccc4)CC3=O)csc2n1)c1cnc2ccccc2n1 [Compound 628],A′,A′,A′,A′,A′,
O=C(Nc1ccccc1-c1cn2c(CN3CCCC3)csc2n1)c1cnc2ccccc2n1 [Compound 619],A′,A′,A′,A′,A′,
O=C(Nc1ccccc1-c1cn2c(CN3CCNCC3)csc2n1)c1cccc(-c2cc[nH]n2)c1 [Compound 733],A′,A′,,,,"ED50 MS ASSAY [2, 5]: A′; ED50 MS ASSAY ([2]; TABLE 4): A′; ED50 MS ASSAY [2, 6]: A′"
COc1ccc(C(=O)Nc2cccc(-c3nc4ncccc4s3)c2)c(OC)c1 [Compound 202],,A′,,,,"ED50 MS ASSAY ([2]; TABLE 4): A′; ED50 MS ASSAY [2, 7]: A′; ED50 MS ASSAY ([2]; class symbols, no key given): A′"
"O=C(/C=C/c1cccc(C(=O)NO)c1)NO [CBHA, m-carboxy-cinnamic acid bishydroxamic acid]",,,,,,inhibition of HDAC [1]: inhibit HDAC at micromolar concentration or lower
COc1cc(C(=O)Nc2ccccc2-c2cn3cc(CN(C)C)sc3n2)cc(OC)c1OC [Compound 179],,A′,,,,"ED50 MS ASSAY ([2]; TABLE 4): A′; ED50 MS ASSAY [2, 7]: A′; ED50 MS ASSAY ([2]; class symbols, no key given): A′"
Cc1csc2nc(-c3ccccc3NC(=O)c3cccc(N(C)C)c3)cn12 [Compound 740],A′,A′,,,,"ED50 MS ASSAY [2, 5]: A′; ED50 MS ASSAY ([2]; TABLE 4): A′; ED50 MS ASSAY [2, 6]: A′"
CN1CCN(C(=O)Cc2csc3nc(-c4ccccc4NC(=O)c4cnc5ccccc5n4)cn23)CC1 [Compound 649],A′,A′,A′,A′,A′,
COc1cccc(C(=O)Nc2ccccc2-c2nc3cccnc3[nH]2)c1 [Compound 532],A′,A′,A′,A′,A′,
COc1ccc(C(=O)Nc2cccc(-c3nc4cnccc4s3)c2)c(OC)c1 [Compound 272],,A′,,A′,,"ED50 MS ASSAY [2, 8]: A′"

Compound,ED50 MS ASSAY [2],ED50 MS ASSAY ([2]; Table 4),"ED50 MS ASSAY ([2]; Table 4, class symbols)","ED50 MS ASSAY [2, 3]","ED50 MS ASSAY [2, 4]",further results
COc1ccc(C(=O)Nc2cccc(-c3nc4cccnc4[nH]3)c2)cc1OC [Compound 185],,A′,,,,"ED50 MS ASSAY ([2]; TABLE 4): A′; ED50 MS ASSAY [2, 7]: A′; ED50 MS ASSAY ([2]; class symbols, no key given): A′"
COc1ccc(C(=O)Nc2ncccc2-c2nc3ccccc3[nH]2)cc1OC [Compound 276],,A′,,A′,,"ED50 MS ASSAY [2, 8]: A′"
COc1cc(C(=O)Nc2ccc(-c3nc4ccncc4o3)cc2)cc(OC)c1OC [Compound 341],,A′,,A′,,"ED50 MS ASSAY [2, 8]: A′"
O=C(Nc1ccccc1-c1cn2c(n1)CCCC2)c1cnc2ccccc2n1 [Compound 548],A′,A′,A′,A′,A′,
COc1cc(C(=O)Nc2cccc(-c3nc4cccnc4s3)c2)cc(OC)c1OC [Compound 217],,A′,,,,"ED50 MS ASSAY ([2]; TABLE 4): A′; ED50 MS ASSAY [2, 7]: A′; ED50 MS ASSAY ([2]; class symbols, no key given): A′"
COc1ccc(C(=O)Nc2ccccc2-c2nc3ccncc3o2)c(OC)c1 [Compound 455],,A′,,A′,,"ED50 MS ASSAY [2, 8]: A′"
O=C(Nc1ccccc1-c1cn2c(CNCC(O)CO)csc2n1)c1cnc2ccccc2n1 (stereo not shown) [Compound 676],A′,A′,A′,A′,A′,
COc1cc(C(=O)Nc2ccccc2-c2nc3ccccc3[nH]2)ccc1CN1CCCC1 [Compound 587],A′,A′,A′,A′,A′,
O=C(Nc1ccccc1-c1nc2cccnc2[nH]1)c1cccc(OC(F)(F)F)c1 [Compound 529],A′,A′,A′,A′,A′,
COc1ccc(C(=O)Nc2ccc(-c3nc4cnccc4o3)s2)cc1OC [Compound 423],,A′,,A′,,"ED50 MS ASSAY [2, 8]: A′"
COc1cc(C(=O)Nc2ccccc2-c2nc3cnccc3o2)cc(OC)c1OC [Compound 405],,A′,,A′,,"ED50 MS ASSAY [2, 8]: A′"
COc1cc(C(=O)Nc2ccccc2-c2cn3c(C)csc3n2)cc(OC)c1OC [Compound 739],A′,A′,,,,"ED50 MS ASSAY [2, 5]: A′; ED50 MS ASSAY ([2]; TABLE 4): A′; ED50 MS ASSAY [2, 6]: A′"
CN(C)c1ccc(C(=O)Nc2ccccc2-c2nc3ccncc3o2)cc1 [Compound 459],,A′,A′,A′,A′,"ED50 MS ASSAY [2, 8]: A′"
COc1ccc(C(=O)Nc2ccc(C)cc2-c2nc3ccccc3[nH]2)cc1OC [Compound 507],A′,A′,A′,A′,A′,
COc1ccc(C(=O)Nc2ccccc2-c2nc3cccnc3[nH]2)cc1 [Compound 531],A′,A′,A′,A′,A′,
O=C(Nc1ccccc1-c1cn2c(CN3CCSC3)csc2n1)c1cnc2ccccc2n1 [Compound 715],A′,A′,,,,"ED50 MS ASSAY [2, 5]: A′; ED50 MS ASSAY ([2]; TABLE 4): A′; ED50 MS ASSAY [2, 6]: A′"
O=C(Nc1ccccc1-c1cn2c(CN3CCNCC3)csc2n1)c1cnc2ccccc2c1 [Compound 645],A′,A′,A′,A′,A′,
N#Cc1cccc(C(=O)Nc2ccccc2-c2nc3cc(CN4CCNCC4)cnc3s2)c1 [Compound 592],A′,A′,A′,A′,A′,
O=C(Nc1ccccc1-c1cn2c(CN3CCNCC3)csc2n1)c1cc(F)cc(F)c1 [Compound 695],A′,A′,,,,"ED50 MS ASSAY [2, 5]: A′; ED50 MS ASSAY ([2]; TABLE 4): A′; ED50 MS ASSAY [2, 6]: A′"
